Experimental data reported in US12435112B2, “Adenovirus comprising a modified adenovirus hexon protein” (UNIVERSITÄT ULM, priority 2019, dated 2025).

System: MSCs
Test: Transduction of MSCs with or without enhancing molecules
Type: cell-based, human
Settings: enhancer pre-incubated with adenovirus
Description: Transduction of MSCs by HAdV5 or HAdV5-Mut3, with or without Enhancing Molecules
MSCs were seeded in 1 mL PL-containing BioWhittaker® Alpha minimum essential medium (Lonza) in 24-well plates. The next day, the indicated viral vector particles were pre-incubated with or without enhancing molecules for 30 minutes at 37° C. in a total volume of 300 μL in PL-free medium. As enhancing molecules, Factor X (250-2000 ng/mL), Spermidine (1-625 ng/μL), Spermine (1-1000 ng/μL), Polybrene (0.08-81 μg/μL), Poly-L-Lysine (1-25% v/v) and Lactoferrin (1-1000 μg/mL) were used. Subsequently, MSCs were washed and 500 μL PL-free medium was provided. Cells were transduced by adding 300 μL of the pre-incubated viral particles (resulting in the indicated pMOI) and incubated for 2 hours at 37° C. Afterwards, cells were washed, and 1 mL of PL-containing medium was added. 72 hours after transduction, MSCs were detached and eGFP expression was analyzed by flow cytometry.
Amount of Enhancers Used for Pre-Incubation of HAdV5:
Transduction of MSCs by HAdV5, HAdV5-Mut3, HAdV5-ΔCAR-Mut3, HAdV5-ΔHVR1 or HAdV5-Mut2
Transduction of MSCs with a pMOI of 1000 was performed as described in section “Transduction of MSCs by HAdV5 or HAdV5-Mut3, with or without enhancing molecules”, except that MSCs were detached and eGFP expression was analyzed by flow cytometry 24 hours after transduction. No enhancing molecules were used.

Compound	enhanced transduction of MSCs with adenoviruses by transduction enhancer
NCCCCNCCCN [Spermidine]	most pronounced
NCCCNCCCCNCCCN [Spermine]	most pronounced
